According to US20120214736A1, “COMPOSITIONS AND METHODS FOR THE MODULATION OF JNK PROTEINS” (Isis Pharmaceuticals, Inc., priority 2006, published 2012):
In the oligonucleotide strings, read from the 5' end, every base follows the letter of its sugar. An asterisk marks phosphorothioate; unmarked linkages are phosphodiester. Other units and linkages are bracketed, terminal groups are in braces. A string of capitals states the bases alone. e = 2'-O-(2-methoxyethyl) (MOE); [5mC] = 5-methylcytosine; d = 2'-deoxy (DNA)

Legend:
JNK1 mRNA = test: Northern assay, JNK1 mRNA expression in A549 cells; type: cell-based, human; conditions: for response of JNK1 mRNA levels in A549 cells (dose and sequence dependence): 50, 100, 200 and 400 nM; for RNA % Inhibition: 300 nM for initial 20 hours then 200 nM for 4 hours
Protocol: (§1) In order to evaluate the activity of potential JNK-modulating oligonucleotides, human lung carcinoma cell line A549 (American Type Culture Collection, Rockville, Md. No. ATCC CCL-185) cells or other cell lines as indicated in the Examples, were grown and treated with oligonucleotides or control solutions as detailed below. After harvesting, cellular extracts were prepared and examined for specific JNK mRNA levels or JNK protein levels (i.e., Northern or Western assays, respectively). In all cases, “% expression” refers to the amount of JNK-specific signal in an oligonucleotide-treated cell relative to an untreated cell (or a cell treated with a control solution that lacks oligonucleotide).
(§2) Northern Assays The mRNA expression of each JNK protein was determined by using a nucleic acid probe specifically hybridizable thereto. Nucleic acid probes specific for JNK1, JNK2 and JNK3 are described in Examples 3, 4 and 5, respectively. The probes were radiolabelled by means well known in the art (see, e.g., Short Protocols in Molecular Biology, 2nd Ed., Ausubel et al., Eds., John Wiley & Sons, New York, 1992, pages 3-11 to 2-3-44 and 4-17 to 4-18; Ruth, Chapter 6 In: Methods in Molecular Biology, Vol. 26: Protocols for Oligonucleotide Conjugates, Agrawal, ed., Humana Press Inc., Totowa, N.J., 1994, pages 167-185; and Chapter 10 In: Molecular Cloning: A Laboratory Manual, 2nd Ed., Sambrook et al., Eds., pages 10.1-10.70). The blots were stripped and reprobed with a ^32P-labeled glyceraldehyde 3-phosphate dehydrogenase (G3PDH) probe (Clontech Laboratories, Inc., Palo Alto, Calif.) in order to confirm equal loading of RNA and to allow the levels of JNK transcripts to be normalized with regard to the G3PDH signals.
(§3) A549 cells were grown in T-75 flasks until 80-90% confluent. At this time, the cells were washed twice with 10 mL of media (DMEM), followed by the addition of 5 mL of DMEM containing 20 ┘g/mL of LIPOFECTIN™ (i.e., 1:1 (w/w) DOTMA/DOPE, Life Technologies, Gaithersburg, Md.; DOTMA=N-[1-(2,3-dioleyoxy)propyl]-N,N,N-trimethylammonium chloride; DOPE=dioleoyl phosphatidylethanolamine). The oligonucleotides were added from a 10 μM stock solution to a final concentration of 400 nM, and the two solutions were mixed by swirling the flasks. As a control, cells were treated with LIPOFECTIN™ without oligonucleotide under the same conditions and for the same times as the oligonucleotide-treated samples. After 4 hours at 37° C., the medium was replaced with fresh DMEM containing 10% serum. The cells were allowed to recover for 18 hours. Total cellular RNA was then extracted in guanidinium, subject to gel electrophoresis and transferred to a filter according to techniques known in the art (see, e.g., Chapter 7 In: Molecular Cloning: A Laboratory Manual, 2nd Ed., Sambrook et al., Eds., pages 7.1-7.87, and Short Protocols in Molecular Biology, 2nd Ed., Ausubel et al., Eds., John Wiley & Sons, New York, 1992, pages 2-24 to 2-30 and 4-14 to 4-29). Filters were typically hybridized overnight to a probe specific for the particular JNK gene of interest in hybridization buffer (25 mM KPO4, pH 7.4; 5×SSC; 5×Denhardt's solution, 100 µg/ml Salmon sperm DNA and 50% formamide) (Alahari et al., Nucl. Acids Res., 1993, 21, 4079). This was followed by two washes with 1×SSC, 0.1% SDS and two washes with 0.25×SSC, 0.1% SDS. Hybridizing bands were visualized by exposure to X-OMAT AR film and quantitated using a PHOSPHORIMAGER™ essentially according to the manufacturer's instructions (Molecular Dynamics, Sunnyvale, Calif.).
JNK1-specific probes: In initial screenings of a set of oligonucleotides derived from the JNK1 sequence (Table 2) for biological activity, a cDNA clone of JNK1 (Derijard et al., Cell, 1994, 76, 1025) was radiolabeled and used as a JNK1-specific probe in Northern blots. Alternatively, however, one or more of the oligonucleotides of Table 1 is detectably labeled and used as a JNK1-specific probe. […]

JNK2 mRNA = test: Northern assay, JNK2 mRNA expression in A549 cells; type: cell-based, human; conditions: for response of JNK2 mRNA levels in A549 cells (dose and sequence dependence): 50, 100, 200 and 400 nM
Protocol: as §1, §2
as §3, with “This was followed by two washes with 1×SSC, 0.1% SDS and two washes with 0.25×SSC, 0.1% SDS.” left out, “Calif.). […]” for “Calif.).”

[1] = test system: TNFa-induced JNK activity; test: TNFa-induced JNK activity in HUVEC (GST-c-Jun phosphorylation); type: cell-based, human; conditions: 100 nM, 5 ng/ml TNFa 15 minutes, compared to a control oligonucleotide
Protocol: Human umbilical vein endothelial cells (HUVEC, Clonetics, San Diego Calif.) were incubated with oligonucleotide with LipofectinJ in Opti-MEMJ for 4 hours at 37° C./5% CO2. The medium was then replaced with 1% FBS/EGM (Clonetics, Walkersville Md.) and incubated for 24 hours at 37° C./5% CO2. Cells were treated with 5 ng/ml TNFa for 15 minutes before lysis. JNK activity was determined by incubating lysates (normalized for protein) with immobilized GST-c-Jun fusion protein (e.g., New England Biolabs, Beverly, Mass.)+^32P-ATP. GST-c-Jun beads were washed and SDS-PAGE sample buffer was added. Samples were resolved by SDS-PAGE and phosphorylated c-Jun was visualized using a Molecular Dynamics PhosphorImager.

rat JNK2 mRNA = test: Northern assay, rat JNK2 (p54a) mRNA levels in A10 aortic smooth muscle cells; type: cell-based; conditions: Northern assays
Protocol: (§4) In order to study the role of JNK proteins in animal models, oligonucleotides targeted to the genes encoding JNK1, JNK2 and JNK3 of Rattus norvegicus were prepared. These oligonucleotides are 2′-methoxyethoxy, phosphodiester/2′-hydroxyl, phosphorothioate/2′-methoxyethoxy, phosphodiester “gapmers” in which every cytosine residue is 5-methylcytosine (m5c). These antisense compounds were synthesized according to the methods of the disclosure. Certain of these oligonucleotides are additionally specifically hybridizable to JNK genes from other species as indicated herein. The oligonucleotides described in this Example were tested for their ability to modulate rat JNK mRNA levels essentially according to the methods described in the preceding Examples, with the exceptions that the cell line used was rat A10 aortic smooth muscle cells (ATCC No. ATCC CRL-1476) and the probes used were specific for rat JNK1, JNK2 or JNK3 (see infra). A10 cells were grown and treated with oligonucleotides essentially as described by (Cioffi et al. Mol. Pharmacol., 1997, 51, 383).
(§5) These antisense compounds were tested for their ability to modulate levels of (JNK1) and (JNK2) mRNA in A10 cells via Northern assays. Due to the high degree of sequence identity between the human and rat genes, radiolabeled human JNK1 (Example 3) and JNK2 (Example 4) cDNAs functioned as specific probes for the rat homologs. […]

rat JNK1 mRNA = test: Northern assay, rat JNK1 mRNA levels in A10 aortic smooth muscle cells; type: cell-based; conditions: Northern assays
Protocol: as §4, §5

human JNK2 mRNA = test: Northern analysis, human JNK2 mRNA in Jurkat cells (electroporation, dose response); type: cell-based; conditions: Jurkat cells
Protocol: Jurkat cells were routinely cultured in RPMI Medium 1640 (Gibco/Life Technologies, Gaithersburg, Md.) supplemented with 20% fetal calf serum (Gibco/Life Technologies, Gaithersburg, Md.). Cells were routinely passaged by aspirating media that contained excess cells and replenishing with new media.
For electroporation, cells were diluted to 28×10^6 cells/mL and placed into 1 mm electroporation cuvettes. Electroporation is performed by treating with 1-20 μM oligonucleotide, at 160 Volts for 6 msec. The entire electroporated samples are then placed into 5 mL of 10% FBS/RPMI Medium 1640 in 100 mm plates. Plates are then left overnight at 37° C./5% CO2.
Each sample is then transferred to 15 mL conical tubes and spun down at 1200 rpm for 5 minutes followed by aspiration of the supernatant. Cells are then suspended in 5 mL PBS followed by a second centrifugation at 1200 rpm for 5 minutes followed by aspiration of the supernatant. Cells are then washed and lysed. Following the lysis step, total cellular RNA is then isolated using the RNEASY kit (Qiagen, Santa Clarita, Calif.) as described in other examples herein.
In accordance with the present invention, Jurkat cells were treated by electroporation with 1, 5 or 20 uM ISIS 101759 or the control oligonucleotide and mRNA levels of human JNK2 were quantitated by Northern analysis.

Question: With “12539 (antisense CTCTCTGTAGGCCCGCTTGG; DNA, all phosphorothioate, methylation of C not given here) [compound 12539]” as the substance, how does the “response of JNK1 mRNA levels in A549 cells (dose and sequence dependence)” value (“response of JNK1 mRNA levels” below) (JNK1 mRNA) read?
Answer: The value was “dependent on dose in an approximately linear fashion”.

Question: What about the “RNA % Inhibition” value (JNK1 mRNA; t = 48 h) of the same substance?
Answer: Its value is 93.3%.

Question: What about the “RNA % Inhibition” value (JNK1 mRNA; t = 72 h) of the same substance?
Answer: The value was 88.3%.

Question: And the “response of JNK2 mRNA levels in A549 cells (dose and sequence dependence)” value (from here on “response of JNK2 mRNA levels”) (JNK2 mRNA)?
Answer: Its value is “dependent on dose in an approximately linear fashion”.

Question: How did the “level of inhibition of JNK2” value (JNK2 mRNA; for at least about 12 hours following the 4 hour treatment) turn out when “12560 (antisense dG*dT*dC*dC*dG*dG*dG*dC*dC*dA*dG*dG*dC*dC*dA*dA*dA*dG*dT*dC) [compound 12560]” was run?
Answer: The value was “greater than or equal to 80%”.

Question: And the “level of inhibition of JNK2” value (JNK2 mRNA; up to at least about t=48 h)?
Answer: Its value is “greater than or equal to 60%”.

Question: With “14318 (sense dG*dA*dC*dT*dT*dT*dG*dG*dC*dC*dT*dG*dG*dC*dC*dC*dG*dG*dA*dC) [compound 14318]” as the substance, how does the “response of JNK2 mRNA levels” value (JNK2 mRNA) read?
Answer: The value was “neither of the control oligonucleotides effect any consistent response”.

Question: With “14319 (dG*dT*dG*dC*dG*dC*dG*dC*dG*dA*dG*dC*dC*dC*dG*dA*dA*dA*dT*dC) [compound 14319]” as the substance, how does the “response of JNK2 mRNA levels” value (JNK2 mRNA) read?
Answer: Its value is “neither of the control oligonucleotides effect any consistent response”.

Question: How did the “response of JNK1 mRNA levels” value (JNK1 mRNA) turn out when “14320 (sense CCAAGCGGGCCTACAGAGAG; DNA, all phosphorothioate, methylation of C not given here) [compound 14320]” was run?
Answer: The value was “neither of the control oligonucleotides effect any consistent response”.

Question: For “14321 (CTTTCCGTTGGACCCCTGGG; DNA, all phosphorothioate, methylation of C not given here) [compound 14321]”, which “response of JNK1 mRNA levels” value (JNK1 mRNA) is on record?
Answer: Its value is “neither of the control oligonucleotides effect any consistent response”.

Question: Which “RNA % Inhibition” value (JNK1 mRNA; t = 48 h) does the source give for “15346 (antisense CTCTCTGTAGGCCCGCTTGG; gapmer: P=S, 2'-MOE wings, 2'-deoxy core, chemistry not fully specified) [compound 15346]” here?
Answer: The value was 95.7%.

Question: And the “RNA % Inhibition” value (JNK1 mRNA; t = 72 h)?
Answer: The value was 89.4%.

Question: How did the “inhibition of TNFa-induced JNK activity” value [1] turn out when “15353 (antisense GTCCGGGCCAGGCCAAAGTC; P=S gapmer, 2'-MOE wings, chemistry not fully specified) [compound 15353]” was run?
Answer: The value was “approximately 55%”.

Question: “18259 (antisense eGe[5mC]eTe[5mC]eA*dG*dT*dG*dG*dA*d[5mC]*dA*dT*dG*dG*eAeTeGeAeG) [compound 18259]” was tested. Which “specific modulation of mRNA encoding JNK2 (dose response)” value (rat JNK2 mRNA) did it give?
Answer: The value was “specifically modulates levels of mRNA encoding JNK1 and JNK2, respectively”.

Question: Which “specific modulation of mRNA encoding JNK1 (dose response)” value (rat JNK1 mRNA) does the source give for “21859 (antisense e[5mC]eTe[5mC]eAeT*dG*dA*dT*dG*dG*d[5mC]*dA*dA*dG*d[5mC]*eAeAeTeTeA) [compound 21859]” here?
Answer: The value was “specifically modulates levels of mRNA encoding JNK1 and JNK2, respectively”.

Question: Which results are given for “101759 (antisense GCTCAGTGGACATGGATGAG; sugars from the 5' end e5 d10 e5, all phosphorothioate, methylation of C not given here) [compound 101759]”?
Answer: Percent Inhibition of human JNK2 mRNA (human JNK2 mRNA; 1 uM): 14%; Percent Inhibition of human JNK2 mRNA (human JNK2 mRNA; 5 uM): 56%; Percent Inhibition of human JNK2 mRNA (human JNK2 mRNA; 20 uM): 92%
